What was measured:
[1] = Therapeutic effect on the brain in Type 3 GD patients on long-term ERT and miglustat; assay type: in vivo, human; details: long-term treatment
Description: Spinal fluid samples were collected for biomarker discovery from patients with Type 3 GD and age-matched control subjects.

[2] = Body weight of mice induced for GD by daily CBE injections; assay type: in vivo, C57BL/6OlaHsd mice
Description: (§1) C57BL/6OlaHsd mice were used as another model of nGD, in which the disease is induced by intra-peritoneal (IP) injection with 100 mg/Kg/day conduritol b epoxide ([…], calbiochem), an irreversible GCase inhibitor.
(§2) Correlation of CSF levels of GPNMB and nGD symptoms was further verified using an additional mouse model of GD, where mice are induced for GD by injections of conduritol b epoxide (CBE), a GCase inhibitor. 100 mg/Kg/day of CBE were daily injected into mice starting on day 15 post-natal. On day 30 the mice were divided into three groups: “CBE D15-30” in which CBE injections were ceased on day 30, “CBE D15-30; PBS D31-41” in which CBE injections were ceased on day 30 and the mice continued to receive phosphate buffered saline (PBS) injections until day 41, and “CBE D15-41”, in which CBE injections were continued to day 41. An additional group of mice was injected with PBS during the entire experiment (“PBS”) and served as a control (FIG. 4A). Mice body weight, a simple indicator of disease progression, was measured daily during the experiment and the results are shown in FIG. 4B.

[3] = system: GPNMB; assay: GPNMB levels in CSF and brain homogenates of CBE treated mice by ELISA; assay type: in vivo
Description: as §1
Mice were anesthetized (100mg/kg Ketamine and 10 mg/Kg xylazine) and CSF was aspired from the Cisterna magna using glass needles. Brain tissues were removed and lysed in ˜6 volumes of Ripa buffer (150 mM sodium chloride, 1.0% Triton X-100, 0.5% sodium deoxycholate, 0.1% SDS, 50 mM Tris, pH 8.0) supplemented with a protease inhibitor mixture (Sigma). Following homogenization, samples were centrifuged at 4500gav for 5 min at 4° C., and the supernatant was collected. Protein level was quantified using the BCA protein assay reagent (Pierce Chemical Co.) GPNMB was measured using the mouse GPNMB ELISA kit (R&D systems) According to manufacturer's protocol.
as §2
CSF was aspirated from the Cisterna magna of the mice and GPNMB levels were measured in both CSF (FIG. 4C) and brain homogenates (FIG. 4D) by ELISA. […] Remarkably, GPNMB levels rapidly declined during the recovery period. More specifically, GPNMB levels in the CSF and brain increased upon injection of CBE from day 15-30 and to a higher extent with injection until day 41.

[4] = compared with mice continuously treated with CBE until day 41

CCCCN1C[C@H](O)[C@@H](O)[C@H](O)[C@H]1CO [miglustat]
therapeutic effect on the brain [1]: neither had any therapeutic effect on the brain

O[C@H]1[C@H](O)[C@@H](O)[C@@H]2O[C@@H]2[C@@H]1O (racemic) [CBE, conduritol b epoxide]
time until body weight began to decrease after beginning CBE injections ([2]; 100 mg/Kg/day IP daily from day 15 post-natal, body weight as indicator of disease progression): 10 to 12 days
body weight course after CBE injections ceased ([2]; CBE D15-30, PBS D31-41 group): began to gain weight
body weight course with continued CBE injections ([2]; CBE D15-41 group, 100 mg/Kg/day): continued to decrease until day 41
GPNMB level in CSF ([3]; CBE treated mice vs PBS control, ELISA): marked elevation
GPNMB level in brain ([3]; CBE treated mice vs PBS control, brain homogenates, ELISA): marked elevation
GPNMB level in CSF on day 41 after cessation of CBE on day 30 [3, 4]: significantly lower level
GPNMB level in brain on day 41 after cessation of CBE on day 30 [3, 4]: significantly lower level

Source: US20170030926A1, “MARKER OF NEUROPATHIC GAUCHER'S DISEASE AND METHODS OF USE THEREOF” (Yeda Research and Development Co. Ltd., priority 2014, published 2017)
